# Reference: patent publication US20250320193A1, “OXOISOINDOLINYL SUBSTITUTED PIPERIDINEDIONE DERIVATIVE AND USE THEREOF” (GLUETACS THERAPEUTICS (SHANGHAI) CO., LTD., priority 2022, published 2025)
# pIC50: −log10 of the molar value.
# Tests used:
# [1] = tested on: CCRF-CEM (human acute lymphoblastic leukemia T-cells); experiment: Tumor cell proliferation inhibition, CCK-8; type: cell-based; settings: CCRF-CEM cells, CCK-8, read-out: inhibitory activity (IC50, nM) CCRF-CEM
# Method: (§1) The tumor cells used herein were cultured in a cell culture medium listed in table 2 at 37° C. in an incubator with 5% CO2. Prior to experimentation, all cells used were correctly identified by STR profiling, and tested negative for mycoplasma through routine screenings.
# (§2) IC50 values of the compounds of the present disclosure (including the compounds in Table 1 and the Examples 1-305 compounds) were measured using the Meilun Cell Counting Kit-8 kit from Dalian Meilun Biotech Co., Ltd. Assay details are as follows: tumor cells were seeded in a 96-well plate at a density listed in Table 5. After 24 h, 100 μL of the inoculated cells were treated with 0.5 μL of the compounds of the present disclosure (including the compounds in Table 1 and the Examples 1-305 compounds) at 10 different successively decreasing concentrations (starting at the highest concentration of 10 μM; 5-fold serial dilutions). After the cells were treated with the compounds of the present disclosure for a period of time, the cell viability detection reagent was added to the culture medium for cell viability assessment according to the instructions provided with the CCK-8 kit. […] The growth inhibition of the compounds of the present disclosure on cells was plotted by Prism Graphpad software, and the IC50 values of the compounds of the present disclosure were calculated therefrom.
# [2] = molecular target: human Cereblon WT GST-tagged protein (Homo sapiens (Human), UniProt Q96SW2); experiment: CRBN-binding affinity, HTRF (CEREBLON BINDING kit, CISBIO); settings: HTRF inhibitory activity
# Sequence of human Cereblon WT GST-tagged protein (Q96SW2 whole entry): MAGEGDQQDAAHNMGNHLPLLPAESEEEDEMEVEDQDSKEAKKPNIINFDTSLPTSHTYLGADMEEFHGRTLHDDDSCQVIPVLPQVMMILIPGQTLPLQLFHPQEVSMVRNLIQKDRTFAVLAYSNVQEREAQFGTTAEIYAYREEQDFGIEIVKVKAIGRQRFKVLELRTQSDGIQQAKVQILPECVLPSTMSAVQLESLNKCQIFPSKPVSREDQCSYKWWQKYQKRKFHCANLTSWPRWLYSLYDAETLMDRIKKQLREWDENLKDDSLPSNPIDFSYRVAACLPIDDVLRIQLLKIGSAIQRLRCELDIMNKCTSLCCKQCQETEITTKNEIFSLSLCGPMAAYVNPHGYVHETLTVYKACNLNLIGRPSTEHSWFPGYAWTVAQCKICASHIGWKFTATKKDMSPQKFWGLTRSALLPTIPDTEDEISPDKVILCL
# Method in brief: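 HTRF competition format: test compound displaces Thalidomide-Red from GST-tagged human Cereblon WT, detected with a Eu-labelled anti-GST antibody. Percent CRBN binding inhibition was derived from the 620 nm signal, normalized to solvent-control and protein-free blank wells.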
# IKZF1 = IKZF1 (Homo sapiens (Human), UniProt Q13422+Q96SW2); experiment: Western blot, substrate protein expression in hPBMC: IKZF1; type: cell-based; settings: hPBMC, compound 500 nM, 24 hours, Western blot
# Sequence of IKZF1 (Q13422 whole entry): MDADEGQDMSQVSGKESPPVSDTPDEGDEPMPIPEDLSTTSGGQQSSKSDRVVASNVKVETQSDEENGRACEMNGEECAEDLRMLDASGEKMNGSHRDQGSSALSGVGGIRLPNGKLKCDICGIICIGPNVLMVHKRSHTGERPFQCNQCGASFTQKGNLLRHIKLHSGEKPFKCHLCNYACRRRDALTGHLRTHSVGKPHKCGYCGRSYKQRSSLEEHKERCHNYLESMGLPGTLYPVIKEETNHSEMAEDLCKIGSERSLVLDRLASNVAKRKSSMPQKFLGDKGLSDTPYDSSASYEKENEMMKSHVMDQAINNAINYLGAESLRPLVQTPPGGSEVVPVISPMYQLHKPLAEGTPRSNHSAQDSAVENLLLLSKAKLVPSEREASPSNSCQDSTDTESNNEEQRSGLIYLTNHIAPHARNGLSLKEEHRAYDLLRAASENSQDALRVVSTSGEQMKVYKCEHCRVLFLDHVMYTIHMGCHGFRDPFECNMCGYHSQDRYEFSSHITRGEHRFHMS
# Sequence of IKZF1 (Q96SW2 whole entry): as the sequence (Q96SW2 whole entry) above
# Sequence of IKZF1 (Q16531 whole entry partner): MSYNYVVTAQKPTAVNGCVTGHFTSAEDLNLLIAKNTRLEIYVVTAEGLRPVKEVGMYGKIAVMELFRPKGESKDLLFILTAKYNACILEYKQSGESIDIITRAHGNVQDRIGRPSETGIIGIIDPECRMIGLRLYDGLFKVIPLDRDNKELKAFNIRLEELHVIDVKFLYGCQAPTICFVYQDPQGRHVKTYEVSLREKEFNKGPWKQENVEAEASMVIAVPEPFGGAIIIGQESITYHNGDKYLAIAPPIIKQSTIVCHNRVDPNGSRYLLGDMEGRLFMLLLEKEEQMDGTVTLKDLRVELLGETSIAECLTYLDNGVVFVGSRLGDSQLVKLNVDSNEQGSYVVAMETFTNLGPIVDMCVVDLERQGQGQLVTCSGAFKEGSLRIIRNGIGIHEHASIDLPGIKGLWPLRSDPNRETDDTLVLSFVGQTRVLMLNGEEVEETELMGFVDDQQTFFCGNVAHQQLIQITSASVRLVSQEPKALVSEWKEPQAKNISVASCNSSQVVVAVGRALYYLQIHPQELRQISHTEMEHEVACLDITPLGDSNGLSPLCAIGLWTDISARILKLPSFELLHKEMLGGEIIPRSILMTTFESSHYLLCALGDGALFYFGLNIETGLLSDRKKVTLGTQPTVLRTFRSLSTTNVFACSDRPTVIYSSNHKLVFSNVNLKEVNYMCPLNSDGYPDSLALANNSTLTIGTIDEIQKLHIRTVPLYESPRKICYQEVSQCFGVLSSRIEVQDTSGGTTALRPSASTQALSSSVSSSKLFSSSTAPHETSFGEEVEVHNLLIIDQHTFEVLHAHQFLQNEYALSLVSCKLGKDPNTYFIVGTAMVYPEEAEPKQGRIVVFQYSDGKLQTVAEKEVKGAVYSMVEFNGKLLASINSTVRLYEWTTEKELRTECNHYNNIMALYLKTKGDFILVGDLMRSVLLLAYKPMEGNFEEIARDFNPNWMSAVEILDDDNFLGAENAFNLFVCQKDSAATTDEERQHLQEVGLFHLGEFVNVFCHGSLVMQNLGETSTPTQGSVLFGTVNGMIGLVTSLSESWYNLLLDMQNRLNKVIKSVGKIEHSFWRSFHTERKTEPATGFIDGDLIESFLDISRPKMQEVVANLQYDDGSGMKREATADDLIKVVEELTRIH
# Method in brief: (§3)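 hPBMC, 1×10^6 cells/mL, 24 h compound exposure; RIPA lysis, BCA protein assay, SDS-PAGE, NC membrane immunoblot. Densitometry vs internal control → % protein remaining; degradation % = 100% − remaining; DC50 = conc. at 50% of DMSO band signal.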
# [3] = tested on: CAL-62 (human thyroid carcinoma cells); experiment: Tumor cell proliferation inhibition, CCK-8; type: cell-based; settings: CAL-62 cells, CCK-8, read-out: inhibitory activity (IC50, nM) CAL-62
# Method: as §1, §2
# [4] = tested on: TMD8 cells (human diffuse large B-cell lymphoma cells); experiment: Tumor cell proliferation inhibition, CCK-8; type: cell-based; settings: TMD8 cells, CCK-8, read-out: inhibitory activity (IC50, nM) TMD8
# Method: as §1, §2
# [5] = tested on: MM.1S cells (human multiple myeloma cells); experiment: Tumor cell proliferation inhibition, CCK-8; type: cell-based; settings: MM1.S, MM.1S cells, CCK-8, read-out: inhibitory activity (IC50, nM) MM.1S
# Method: as §1, §2
# [6] = tested on: Jurkat cells (human T-cell leukemia cells); experiment: Tumor cell proliferation inhibition, CCK-8; type: cell-based; settings: Jurkat cells, CCK-8, read-out: inhibitory activity (IC50, nM) Jurkat
# Method: as §1, §2
# IKZF3 = IKZF3 (Homo sapiens (Human), UniProt Q96SW2+Q9UKT9); experiment: Western blot, substrate protein expression in hPBMC: IKZF3; type: cell-based; settings: hPBMC, compound 500 nM, 24 hours, Western blot
# Sequence of IKZF3 (Q9UKT9 whole entry): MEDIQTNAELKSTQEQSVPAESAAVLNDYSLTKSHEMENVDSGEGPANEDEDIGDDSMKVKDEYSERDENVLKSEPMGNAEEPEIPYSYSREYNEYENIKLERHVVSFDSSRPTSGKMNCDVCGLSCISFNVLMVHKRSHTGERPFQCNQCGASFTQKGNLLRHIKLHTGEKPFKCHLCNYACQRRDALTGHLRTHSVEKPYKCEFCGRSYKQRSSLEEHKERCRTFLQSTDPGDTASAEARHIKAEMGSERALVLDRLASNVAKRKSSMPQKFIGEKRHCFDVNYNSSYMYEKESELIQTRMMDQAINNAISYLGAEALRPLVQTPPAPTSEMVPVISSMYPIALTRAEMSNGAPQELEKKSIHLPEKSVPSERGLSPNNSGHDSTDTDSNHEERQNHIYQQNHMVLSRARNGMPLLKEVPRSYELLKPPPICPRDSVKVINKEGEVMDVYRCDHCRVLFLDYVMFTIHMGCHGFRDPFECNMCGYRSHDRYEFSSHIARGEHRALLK
# Sequence of IKZF3 (Q96SW2 whole entry): as the sequence (Q96SW2 whole entry) above
# Sequence of IKZF3 (Q16531 whole entry partner): as the sequence (Q16531 whole entry partner) above
# Method in brief: as §3
# GSPT1 = GSPT1 (Homo sapiens (Human), UniProt P15170+Q96SW2); experiment: Western blot, substrate protein expression in hPBMC: GSPT1; type: cell-based; settings: hPBMC, compound 500 nM, 24 hours, Western blot
# Sequence of GSPT1 (P15170 whole entry): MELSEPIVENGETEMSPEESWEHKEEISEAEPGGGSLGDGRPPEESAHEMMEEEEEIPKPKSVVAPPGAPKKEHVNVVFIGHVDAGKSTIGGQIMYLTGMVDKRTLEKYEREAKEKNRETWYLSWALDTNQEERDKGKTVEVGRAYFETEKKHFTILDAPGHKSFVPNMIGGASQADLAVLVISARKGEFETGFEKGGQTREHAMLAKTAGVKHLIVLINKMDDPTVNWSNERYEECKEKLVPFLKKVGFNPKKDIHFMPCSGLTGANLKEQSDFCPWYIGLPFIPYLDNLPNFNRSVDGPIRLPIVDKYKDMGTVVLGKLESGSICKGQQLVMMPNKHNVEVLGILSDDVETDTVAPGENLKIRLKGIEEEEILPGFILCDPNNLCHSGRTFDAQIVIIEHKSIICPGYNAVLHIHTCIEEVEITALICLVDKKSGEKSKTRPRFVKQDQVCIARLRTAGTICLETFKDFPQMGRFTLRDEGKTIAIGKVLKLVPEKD
# Sequence of GSPT1 (Q96SW2 whole entry): as the sequence (Q96SW2 whole entry) above
# Sequence of GSPT1 (Q16531 whole entry partner): as the sequence (Q16531 whole entry partner) above
# Method in brief: as §3
# [7] = tested on: H146 cells (human small cell lung carcinoma cells); experiment: Tumor cell proliferation inhibition, CCK-8; type: cell-based; settings: NCI-H146, H146 cells, CCK-8, read-out: inhibitory activity (IC50, nM) H146
# Method: as §1, §2
# [8] = tested on: MDA-MB-231 cells (human breast adenocarcinoma cells); experiment: Tumor cell proliferation inhibition, CCK-8; type: cell-based; settings: MDA-MB-231 cells, CCK-8, read-out: inhibitory activity (IC50, nM) MDA-MB-231
# Method: as §1, §2
Structure (SMILES),IC50 [1] [nM],pIC50 [2],substrate protein remaining % IKZF1 (IKZF1),IC50 [3] [nM],IC50 [4] [nM],IC50 [5] [nM],IC50 [6] [nM],substrate protein remaining % IKZF3 (IKZF3),substrate protein remaining % GSPT1 (GSPT1),IC50 [7] [nM],IC50 [8] [nM]
"O=C1CCC(N2Cc3cc(CN4C5CCC4CN(C(c4ccccc4)c4ccccc4)C5)cc(F)c3C2=O)C(=O)N1 (centres unmarked) [GT-03840, 3-(5-((3-benzhydryl-3,8-diazabicyclo[3.2.1]octan-8-yl)methyl)-7-fluoro-1-oxoisoindolin-2-yl)piperidine-2,6-dione]",10 to 50,5.72 to 6.00,,,,,,,,,
"O=C1CCC(N2Cc3cc(CN4CCN(C(c5ccccc5)c5ccncc5)CC4)ccc3C2=O)C(=O)N1 (centres unmarked) [GT-04205, 3-(1-oxo-5-((4-(phenyl(pyridin-4-yl)methyl)piperazin-1-yl)methyl)isoindolin-2-yl)piperidine-2,6-dione]",50 to 100,> 6.30,A (A represents 0% ≤ substrate protein remaining % ≤ 50%),10 to 50,50 to 100,100 to 500,500 to 1000,A (A represents 0% ≤ substrate protein remaining % ≤ 50%),A (A represents 0% ≤ substrate protein remaining % ≤ 50%),,
"O=C1CCC(N2Cc3cc(CN4CCC(N(c5ccccc5)c5ccccc5)CC4)ccc3C2=O)C(=O)N1 (centres unmarked) [GT-04225, 3-(5-((4-(diphenylamino)piperidin-1-yl)methyl)-1-oxoisoindolin-2-yl)piperidine-2,6-dione]",< 1,> 6.30,A (A represents 0% ≤ substrate protein remaining % ≤ 50%),< 1,1 to 10,< 1,< 1,A (A represents 0% ≤ substrate protein remaining % ≤ 50%),A (A represents 0% ≤ substrate protein remaining % ≤ 50%),1 to 10,1 to 10
"O=C1CCC(N2Cc3c(ccc(CN4CCC(N(c5ccccc5)c5ccccc5)CC4)c3F)C2=O)C(=O)N1 (centres unmarked) [GT-04226, 3-(5-((4-(diphenylamino)piperidin-1-yl)methyl)-4-fluoro-1-oxoisoindolin-2-yl)piperidine-2,6-dione]",< 1,> 6.30,A (A represents 0% ≤ substrate protein remaining % ≤ 50%),< 1,1 to 10,< 1,< 1,A (A represents 0% ≤ substrate protein remaining % ≤ 50%),A (A represents 0% ≤ substrate protein remaining % ≤ 50%),1 to 10,1 to 10
"O=C1CCC(N2Cc3c(ccc(CN4CCN(C(c5ccccc5)c5ccncc5)CC4)c3F)C2=O)C(=O)N1 (centres unmarked) [GT-04247, 3-(4-fluoro-1-oxo-5-((4-(phenyl(pyridin-4-yl)methyl)piperazin-1-yl)methyl)isoindolin-2-yl)piperidine-2,6-dione]",50 to 100,> 6.30,A (A represents 0% ≤ substrate protein remaining % ≤ 50%),50 to 100,,100 to 500,,A (A represents 0% ≤ substrate protein remaining % ≤ 50%),A (A represents 0% ≤ substrate protein remaining % ≤ 50%),,
"O=C1CCC(N2Cc3cc(CN4CCN(C(c5ccccc5)c5ccncc5)CC4)c(F)cc3C2=O)C(=O)N1 (centres unmarked) [GT-04248, 3-(6-fluoro-1-oxo-5-((4-(phenyl(pyridin-4-yl)methyl)piperazin-1-yl)methyl)isoindolin-2-yl)piperidine-2,6-dione]",10 to 50,6.00 to 6.30,A (A represents 0% ≤ substrate protein remaining % ≤ 50%),10 to 50,,50 to 100,50 to 100,B (B represents substrate protein remaining % > 50%),A (A represents 0% ≤ substrate protein remaining % ≤ 50%),100 to 500,100 to 500
"O=C1CCC(N2Cc3cc(CN4CCN(C(c5ccccc5)c5cccnc5)CC4)ccc3C2=O)C(=O)N1 (centres unmarked) [GT-04249, 3-(1-oxo-5-((4-(phenyl(pyridin-3-yl)methyl)piperazin-1-yl)methyl)isoindolin-2-yl)piperidine-2,6-dione]",10 to 50,> 6.30,A (A represents 0% ≤ substrate protein remaining % ≤ 50%),10 to 50,100 to 500,500 to 1000,,A (A represents 0% ≤ substrate protein remaining % ≤ 50%),A (A represents 0% ≤ substrate protein remaining % ≤ 50%),,
"O=C1CCC(N2Cc3c(ccc(CN4CCN(C(c5ccccc5)c5cccnc5)CC4)c3F)C2=O)C(=O)N1 (centres unmarked) [GT-04250, 3-(4-fluoro-1-oxo-5-((4-(phenyl(pyridin-3-yl)methyl)piperazin-1-yl)methyl)isoindolin-2-yl)piperidine-2,6-dione]",50 to 100,> 6.30,A (A represents 0% ≤ substrate protein remaining % ≤ 50%),50 to 100,,100 to 500,,A (A represents 0% ≤ substrate protein remaining % ≤ 50%),A (A represents 0% ≤ substrate protein remaining % ≤ 50%),,
"O=C1CCC(N2Cc3cc(C(=O)N4CCN(C(c5cccc(F)c5)c5cccc(F)c5)CC4)ccc3C2=O)C(=O)N1 (centres unmarked) [GT-06146, 3-(5-(4-(bis(3-fluorophenyl)methyl)piperazine-1-carbonyl)-1-oxoisoindolin-2-yl)piperidine-2,6-dione]",,> 6.30,A (A represents 0% ≤ substrate protein remaining % ≤ 50%),,500 to 1000,10 to 50,,A (A represents 0% ≤ substrate protein remaining % ≤ 50%),A (A represents 0% ≤ substrate protein remaining % ≤ 50%),100 to 500,100 to 500
"O=C1CCC(N2Cc3cc(CN4CCN(C(c5cc(F)cc(F)c5)c5cc(F)cc(F)c5)CC4)ccc3C2=O)C(=O)N1 (centres unmarked) [GT-06387, 3-(5-((4-(bis(3,5-difluorophenyl)methyl)piperazin-1-yl)methyl)-1-oxoisoindolin-2-yl)piperidine-2,6-dione]",,5.72 to 6.00,B (B represents substrate protein remaining % > 50%),,1 to 10,< 1,,A (A represents 0% ≤ substrate protein remaining % ≤ 50%),A (A represents 0% ≤ substrate protein remaining % ≤ 50%),1 to 10,1 to 10
"O=C1CCC(N2Cc3cc(C(=O)N4CCN(C(c5cc(F)cc(F)c5)c5cc(F)cc(F)c5)CC4)ccc3C2=O)C(=O)N1 (centres unmarked) [GT-06597, 3-(5-(4-(bis(3,5-difluorophenyl)methyl)piperazine-1-carbonyl)-1-oxoisoindolin-2-yl)piperidine-2,6-dione]",,6.00 to 6.30,A (A represents 0% ≤ substrate protein remaining % ≤ 50%),,100 to 500,10 to 50,,A (A represents 0% ≤ substrate protein remaining % ≤ 50%),A (A represents 0% ≤ substrate protein remaining % ≤ 50%),10 to 50,50 to 100
